Like-named read-outs stand apart in the source and are kept apart here.
Legend:
CHK1 = target: T1, CHK1 (Homo sapiens, UniProt O14757); assay: Western blot of CHK1 autophosphorylation at S296; type: cell-based; conditions: SRA737 3 μM, 2 days
T1 construct: endogenous in cells; host or cells: G401 rhabdoid tumor cells
T1 sequence (O14757 1-476): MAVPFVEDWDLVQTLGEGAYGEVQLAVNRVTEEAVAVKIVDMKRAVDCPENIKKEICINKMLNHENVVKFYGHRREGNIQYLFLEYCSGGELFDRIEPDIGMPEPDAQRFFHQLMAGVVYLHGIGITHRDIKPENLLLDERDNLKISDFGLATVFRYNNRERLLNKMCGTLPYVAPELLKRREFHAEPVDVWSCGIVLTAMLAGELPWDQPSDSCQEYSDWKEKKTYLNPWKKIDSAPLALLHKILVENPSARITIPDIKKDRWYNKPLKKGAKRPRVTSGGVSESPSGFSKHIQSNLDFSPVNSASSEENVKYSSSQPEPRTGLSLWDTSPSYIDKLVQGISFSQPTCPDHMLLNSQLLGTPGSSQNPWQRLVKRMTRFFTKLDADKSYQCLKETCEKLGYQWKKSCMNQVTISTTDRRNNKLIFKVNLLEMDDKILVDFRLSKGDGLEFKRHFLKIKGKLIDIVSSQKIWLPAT
Description: To assess protein expression by Western immunoblotting, pellets of 1 million cells were prepared and washed once in cold PBS. Cells were resuspended in 100-130 μL of RIPA lysis buffer (50 mM Tris-HCl, pH 8.0, 150 mM NaCl, 1.0% NP-40, 0.5% sodium deoxycholate, 0.1% sodium dodecyl sulfate) and incubated on ice for 10 minutes. Cell suspensions were then disrupted using a Covaris S220 adaptive focused sonicator for 5 minutes (peak incident power: 35W, duty factor: 10%, 200 cycles/burst) at 4° C. Lysates were cleared by centrifugation at 18,000 g for 15 min at 4° C. Protein concentration was assayed using the DC Protein Assay (Bio-Rad) and 15-35 μg whole cell extract was used per sample. Samples were boiled at 95° C. in Laemmli buffer (Bio-Rad) with 40 mM DTT and resolved using sodium dodecyl sulfate-polyacrylamide gel electrophoresis. Proteins were transferred to Immobilon FL PVDF membranes (Millipore), and membranes were blocked using Intercept Blocking buffer (Li-Cor). […] Blotted membranes were visualized using goat secondary antibodies conjugated to IRDye 680RD or IRDye 800CW (Li-Cor, 926-68071 and 926-32210) at 1:15,000 and the Odyssey CLx fluorescence scanner, according to manufacturer's instructions (Li-Cor). […]

RB1^del G401 cells [1] = assay: Cell viability (CellTiter-Glo), G401 RB1^del clones E1 and F2; type: cell-based; conditions: for overcoming TAZ resistance in RB1^del G401 cells: seleciclib, alisertib 9 days, barasertib 6 days; for EC50: Homo sapiens, G-401, 144 h, barasertib for 6 days, read-out: half-maximal effective concentration
Description: G401 cells with RB1 mutations were engineered by Synthego. […] Ribonucleprotein containing spCas9 and sgRNA was transfected into G401 cells by electroporation. […] The cells were then single-cell cloned and re-verified by Sanger sequencing.
Drug and media were replaced on Days 4, 7, and 11. […] CellTiter-Glo reagent was freshly reconstituted on the day of measurement and added in a 1:1 proportion to cell media. […] Cell line doubling time was determined by measuring cell viability every 24 hours over the course of 4 days, and fitting the cell viability to a two-parameter exponential curve. […] After the addition of cells, drugs were added using a pin tool (stainless steel pins with 50 nL slots, V&P Scientific) mounted onto a liquid handling robot (CyBio Well vario, Analytik Jena). For analysis of synergy, we used the synergyFinder package (2). Outliers due to pinning errors were excluded after manual examination.

RB1^WT G401 cells [2] = assay: Cell viability (CellTiter-Glo) dose response, G401 RB1^WT; type: cell-based; conditions: Homo sapiens, G-401, 144 h, barasertib for 6 days, read-out: half-maximal effective concentration
Description: (§1) Drug and media were replaced on Days 4, 7, and 11. CellTiter-Glo assays were performed on Day 14, with luminescence readings taken using an automated fluorescence plate reader (Tecan). CellTiter-Glo reagent was freshly reconstituted on the day of measurement and added in a 1:1 proportion to cell media. […] Cell line doubling time was determined by measuring cell viability every 24 hours over the course of 4 days, and fitting the cell viability to a two-parameter exponential curve. […] After the addition of cells, drugs were added using a pin tool (stainless steel pins with 50 nL slots, V&P Scientific) mounted onto a liquid handling robot (CyBio Well vario, Analytik Jena). For analysis of synergy, we used the synergyFinder package (2). Outliers due to pinning errors were excluded after manual examination.

MRT and ES cell lines = assay: TAZ dose-response curves in a panel of MRT and ES cell lines; type: cell-based; conditions: 13 days, AUC integrated from 40 nM to 50 μM
Description: as §1

G401 cells = conditions: single drug, 7 days; DMSO 0.061
Description: Immunofluorescence for γH2AX was performed on cells plated on Millicell EZ Slide glass slides (EMD Millipore), coated for 45 minutes with bovine plasma fibronectin (Millipore Sigma). After drug treatment, cells were washed once with PBS and fixed in 4% formaldehyde for 10 minutes at room temperature. Slides were then washed three times in PBS for 5 minutes, permeabilized for 15 minutes in 0.3% Triton X-100, washed again in PBS three times, and blocked with 5% goat serum (Millipore Sigma, G9023) in PBS for 1 hour at room temperature. Slides were incubated with mouse anti-γH2A.X primary antibody (Sigma-Aldrich, 05-636) at 1:500 in blocking buffer for 1 hour, washed three times in PBS, and incubated with goat anti-mouse secondary antibody conjugated to AlexaFluor555 (Invitrogen, A-21422) at 1:1,000. Cells were then counterstained with DAPI at 1:1,000 for 10 minutes and treated with ProLong Diamond Antifade Mountant with DAPI (Invitrogen, P36962) for 48 hours.
Images were acquired on a Leica SP5 confocal microscope in the upright configuration at 63× magnification. Images were then processed using a custom pipeline in CellProfiler (6). Per-cell integrated γH2A.X intensity was normalized against per-cell integrated DAPI intensity.

RB1^del G401 cells [3] = assay: Flow cytometry cell cycle analysis (EdU/propidium iodide), G401 RB1^del clones; type: cell-based; conditions: 1 μM TAZ, 11 days
Description: (§2) On Day 11, cells were pulsed with EdU for 1 hour. Cells were then harvested and processed for flow cytometry using the manufacturer's protocol (Click-iT, Invitrogen). Briefly, cells were washed with PBS with 1% BSA, permeabilized, and incubated with AlexaFluor647 for 30 minutes. DNA content was measured using propidium iodide (0.05 μg/μL). Cells were analyzed on a CytoFLEX LX (Beckman Coulter).

RB1^WT G401 cells [4] = assay: Flow cytometry cell cycle analysis (EdU/propidium iodide), G401 RB1^WT; type: cell-based; conditions: 1 μM TAZ, 11 days
Description: as §2

[5] = system: EZH2^Y666N expressing G401 rhabdoid tumor cells; assay: Cell viability (CellTiter-Glo), G401 clones expressing doxycycline-inducible EZH2^Y666N; type: cell-based; conditions: 10 μM drug, 14 days
Description: as §1

For `N#Cc1cnc(Nc2cc(NC[C@H]3CNCCO3)c(C(F)(F)F)cn2)cn1` [SRA737], the CHK1 auto-phosphorylation (CHK1) was “effective suppression”.

`COc1cc(Nc2ncc3c(n2)-c2ccc(Cl)cc2C(c2c(F)cccc2OC)=NC3)ccc1C(=O)O` [alisertib] was tested, and the “overcoming TAZ resistance in RB1^del G401 cells” value (RB1^del G401 cells [1]) was “able to overcome TAZ resistance”.

In the case of `CCN(CCCOc1ccc2c(Nc3cc(CC(=O)Nc4cccc(F)c4)n[nH]3)ncnc2c1)CCOP(=O)(O)O` [barasertib], the EC50 (RB1^WT G401 cells [2]) is reported as 6.5 ± 0.5 nM, the EC50 (RB1^del G401 cells [1]; G401 RB1^del E1 clone) is reported as 5.5 ± 0.6 nM and the EC50 (RB1^del G401 cells [1]; G401 RB1^del F2 clone) is reported as 5.9 ± 0.9 nM.

With `CC[C@H](CO)Nc1nc(NCc2ccccc2)c2ncn(C(C)C)c2n1` [seleciclib] the “overcoming TAZ resistance in RB1^del G401 cells” value (RB1^del G401 cells [1]) was “able to overcome TAZ resistance”.

With `CCN(c1cc(-c2ccc(CN3CCOCC3)cc2)cc(C(=O)NCc2c(C)cc(C)[nH]c2=O)c1C)C1CCOCC1` [TAZ, Tazemetostat] the “area under the curve (AUC) of TAZ dose responses” value (MRT and ES cell lines; resistant ES1, VAESBJ, ES2, EPI544, MP-MRT-AN cell lines) was at most 0.3, the “area under the curve (AUC) of TAZ dose responses” value (MRT and ES cell lines; sensitive G401, KP-MRT-NS, TTC642, A204, TM8716, KP-MRT-RY cell lines) was over 0.3 and the “nuclear γH2AX fluorescence, median normalized level” value (G401 cells) was 0.12. The “proportion of cells in G1 phase upon TAZ treatment” value (shortened to “proportion of cells”) (RB1^del G401 cells [3]; RB1^del E1 clone) was 31%, the “proportion of cells” value (RB1^del G401 cells [3]; RB1^del F2 clone) was 28% and the “proportion of cells” value (RB1^WT G401 cells [4]) was 50%.

In the case of `Cc1ncccc1-c1cnc(NCc2c(F)ccc3c2CCO3)n2cnnc12` [MAK683], the “cell viability of EZH2^Y666N clones versus wild-type EZH2” value [5] is reported as “overcomes EZH2^Y666N-mediated resistance”.

For `Cc1cc(C)c(CNC(=O)c2cc(Cl)c3c(c2C)O[C@@](C)([C@H]2CC[C@H](N(C)C)CC2)O3)c(=O)[nH]1` [valemetostat], the “cell viability of EZH2^Y666N clones versus wild-type EZH2” value [5] was “confers resistance”.
